Here are results for one compound from patent publication US10010610B2, “Compositions and methods for the treatment of intraocular neovascularization and/or leakage” (Retinal Therapies LLC, priority 2014, dated 2018).

The conditions of series [1]: octanol-water partition coefficient at pH 7.0; cited from earlier work.
Series [2] in a line: in vivo. The following applies: rabbit, topical, 0.25 % w/v.
Series [3] is described as follows: Slit lamp and fundus exams after topical ocular dosing in rabbits. The note with it: Example 1 formulation, topical twice-a-day to both eyes, treated eyes.

For `COc1cc2nccc(Oc3ccc(NC(=O)C4(C(=O)Nc5ccc(F)cc5)CC4)cc3)c2cc1OC` [cabozantinib], the “Log P” value in series [1] was 3.0. Further, the concentration at 5 day was less than 12.5 ng/mL in series [2] (pigmented, plasma) and 0.99 nM in series [2] (posterior vitreous). In addition, in series [3], the “slit lamp and fundus exams” value is listed as “completely normal except for slight conjuctival follicle formation”.
